Measurements published in patent US20260092071A1, “COMPOUNDS AND COMPOSITIONS AS SMARCA2/4 DEGRADERS AND USES THEREOF” (REGENTS OF THE UNIVERSITY OF MICHIGAN, priority 2022, published 2026).
Where two headings read alike, the source gives them in different places.

Tests used:
SMARCA2 = SMARCA2 (Homo sapiens, UniProt P51531); assay: HiBiT assay for protein degradation, Hela SMARCA2-HiBiT cells (A series); assay type: cell-based; design: Hela cells were genetically modified via CRISPR/Cas9 to fuse HiBiT to the carboxy terminus of SMARCA2; host or cells: HeLa (CRISPR/Cas9 HiBiT knock-in); settings: for DC50: read-out: SMARC A2 Hela HiBit DC50; for Dmax: read-out: SMARC A2 Hela HiBit Dmax (%);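 for SMARC A2 Hela HiBit Dmax (%): 24 h compound treatment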
Sequence of SMARCA2 (P51531 whole entry): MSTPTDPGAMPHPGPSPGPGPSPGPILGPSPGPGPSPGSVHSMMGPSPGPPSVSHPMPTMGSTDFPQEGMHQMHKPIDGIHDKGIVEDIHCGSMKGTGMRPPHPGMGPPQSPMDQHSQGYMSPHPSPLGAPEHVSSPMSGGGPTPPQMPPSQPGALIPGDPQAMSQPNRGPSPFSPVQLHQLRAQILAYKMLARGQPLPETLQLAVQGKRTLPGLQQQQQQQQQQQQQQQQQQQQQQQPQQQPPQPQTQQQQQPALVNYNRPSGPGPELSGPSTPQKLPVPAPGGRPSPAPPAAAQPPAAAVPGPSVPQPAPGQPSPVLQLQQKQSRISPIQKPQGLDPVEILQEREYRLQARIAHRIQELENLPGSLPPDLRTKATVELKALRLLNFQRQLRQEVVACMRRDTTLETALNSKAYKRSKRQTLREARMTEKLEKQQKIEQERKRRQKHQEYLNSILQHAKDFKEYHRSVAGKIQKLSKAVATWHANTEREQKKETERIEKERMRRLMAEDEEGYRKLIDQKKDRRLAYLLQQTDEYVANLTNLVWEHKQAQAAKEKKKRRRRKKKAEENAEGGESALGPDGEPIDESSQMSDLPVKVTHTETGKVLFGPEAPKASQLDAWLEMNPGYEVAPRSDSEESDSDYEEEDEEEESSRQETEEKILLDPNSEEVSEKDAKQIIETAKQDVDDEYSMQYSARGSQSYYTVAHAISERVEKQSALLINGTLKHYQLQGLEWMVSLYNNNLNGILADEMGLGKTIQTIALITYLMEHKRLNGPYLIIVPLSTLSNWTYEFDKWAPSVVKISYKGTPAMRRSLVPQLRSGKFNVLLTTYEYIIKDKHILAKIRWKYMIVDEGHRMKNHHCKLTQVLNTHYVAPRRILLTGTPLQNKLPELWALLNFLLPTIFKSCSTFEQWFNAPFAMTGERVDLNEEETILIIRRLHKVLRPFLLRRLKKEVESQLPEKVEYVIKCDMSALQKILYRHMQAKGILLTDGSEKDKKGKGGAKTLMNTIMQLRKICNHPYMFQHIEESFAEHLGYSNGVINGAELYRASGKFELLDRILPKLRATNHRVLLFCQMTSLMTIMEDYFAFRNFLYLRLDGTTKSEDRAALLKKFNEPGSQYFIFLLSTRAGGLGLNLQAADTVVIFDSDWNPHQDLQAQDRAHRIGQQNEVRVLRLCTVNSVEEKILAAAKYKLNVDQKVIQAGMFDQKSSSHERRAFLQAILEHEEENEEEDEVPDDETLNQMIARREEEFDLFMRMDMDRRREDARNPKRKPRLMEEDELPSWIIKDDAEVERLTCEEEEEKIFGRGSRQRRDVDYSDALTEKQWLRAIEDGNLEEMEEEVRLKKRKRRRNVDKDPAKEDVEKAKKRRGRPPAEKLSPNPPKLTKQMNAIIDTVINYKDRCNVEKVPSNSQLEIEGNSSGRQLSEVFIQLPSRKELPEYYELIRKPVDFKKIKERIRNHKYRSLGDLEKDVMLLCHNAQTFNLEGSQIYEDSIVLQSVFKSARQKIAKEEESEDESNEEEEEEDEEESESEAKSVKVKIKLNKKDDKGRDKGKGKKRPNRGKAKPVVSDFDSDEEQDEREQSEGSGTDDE
How it was run: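 SMARCA2 degradation was measured in HeLa cells whose endogenous SMARCA2 carries a carboxy-terminal HiBiT tag introduced by CRISPR/Cas9 (Promega CS302365). Cells were maintained in DMEM with FBS and penicillin-streptomycin. SMARCA2 levels were read at the end of the experiment by Nano-Glo® HiBiT lytic luminescence (Promega N3050) and analyzed in GraphPad Prism.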

SMARCA4 = SMARCA4 (Homo sapiens, UniProt P51532); assay: HiBiT assay for protein degradation, Hela SMARCA4-HiBiT cells (A series); assay type: cell-based; design: fuse HiBiT to the carboxy terminus of SMARCA2 (Promega CS302365) or SMARCA4 (Promega CS3023225); host or cells: HeLa (CRISPR/Cas9 HiBiT knock-in); settings: for DC50: read-out: SMARC A4 Hela HiBit DC50; for Dmax: read-out: SMARC A4 Hela HiBit Dmax(%)
Sequence of SMARCA4 (P51532 whole entry): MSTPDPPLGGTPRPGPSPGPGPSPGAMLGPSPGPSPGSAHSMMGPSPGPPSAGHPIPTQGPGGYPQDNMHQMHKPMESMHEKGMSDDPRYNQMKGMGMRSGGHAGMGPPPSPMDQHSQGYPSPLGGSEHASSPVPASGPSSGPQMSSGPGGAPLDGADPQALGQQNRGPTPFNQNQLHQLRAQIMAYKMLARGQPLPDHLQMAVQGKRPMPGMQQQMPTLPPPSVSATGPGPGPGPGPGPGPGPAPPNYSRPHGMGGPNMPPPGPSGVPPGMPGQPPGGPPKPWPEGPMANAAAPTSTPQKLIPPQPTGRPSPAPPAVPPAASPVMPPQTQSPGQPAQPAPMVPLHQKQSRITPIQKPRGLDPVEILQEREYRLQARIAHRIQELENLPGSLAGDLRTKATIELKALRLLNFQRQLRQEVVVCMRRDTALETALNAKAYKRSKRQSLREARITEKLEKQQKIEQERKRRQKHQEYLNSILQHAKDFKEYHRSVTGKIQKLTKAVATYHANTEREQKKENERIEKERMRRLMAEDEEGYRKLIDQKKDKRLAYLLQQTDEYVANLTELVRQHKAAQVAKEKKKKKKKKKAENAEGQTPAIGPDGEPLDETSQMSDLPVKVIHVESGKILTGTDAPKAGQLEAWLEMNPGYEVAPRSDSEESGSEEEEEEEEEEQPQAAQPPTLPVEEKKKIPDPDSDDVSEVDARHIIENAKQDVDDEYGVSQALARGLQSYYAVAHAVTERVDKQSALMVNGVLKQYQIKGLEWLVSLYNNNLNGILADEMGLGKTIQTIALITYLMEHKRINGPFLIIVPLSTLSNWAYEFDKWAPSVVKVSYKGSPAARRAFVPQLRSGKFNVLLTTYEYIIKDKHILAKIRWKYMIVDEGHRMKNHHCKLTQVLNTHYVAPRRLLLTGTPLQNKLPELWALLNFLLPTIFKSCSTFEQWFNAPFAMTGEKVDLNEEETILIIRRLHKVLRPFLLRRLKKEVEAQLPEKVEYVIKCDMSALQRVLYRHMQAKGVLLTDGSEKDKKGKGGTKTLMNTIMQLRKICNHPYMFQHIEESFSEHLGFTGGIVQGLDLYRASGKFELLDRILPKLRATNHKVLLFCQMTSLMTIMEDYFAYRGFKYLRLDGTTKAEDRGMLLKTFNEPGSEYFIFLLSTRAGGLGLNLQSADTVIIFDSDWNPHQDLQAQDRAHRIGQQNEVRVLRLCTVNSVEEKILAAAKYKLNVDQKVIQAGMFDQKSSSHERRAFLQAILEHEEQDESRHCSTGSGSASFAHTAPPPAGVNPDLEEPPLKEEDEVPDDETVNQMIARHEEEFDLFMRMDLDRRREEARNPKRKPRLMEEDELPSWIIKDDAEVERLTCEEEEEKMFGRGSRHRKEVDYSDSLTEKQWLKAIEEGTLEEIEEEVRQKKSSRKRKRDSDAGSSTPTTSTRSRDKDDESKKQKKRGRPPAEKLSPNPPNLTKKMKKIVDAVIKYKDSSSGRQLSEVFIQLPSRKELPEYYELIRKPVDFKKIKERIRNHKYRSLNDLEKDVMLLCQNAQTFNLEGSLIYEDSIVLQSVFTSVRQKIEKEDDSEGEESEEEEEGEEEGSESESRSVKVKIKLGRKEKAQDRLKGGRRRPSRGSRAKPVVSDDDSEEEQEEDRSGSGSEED
Method: Hela cells were genetically modified via CRISPR/Cas9 to fuse HiBiT to the carboxy terminus of SMARCA2 (Promega CS302365) or SMARCA4 (Promega CS3023225). Cells were cultured in DMEM containing 10% FBS and 1% (Vol:Vol) penicillin-streptomycin. […] At the end of experiment, levels of SMARCA2 or SMARCA4 expression were assessed with Nano-Glo® HiBiT Lytic Detection Assay (Promega N3050). IC50 was obtained using the GraphPad Prism data analysis software.

[1] = Hela SMARCA2-HiBiT cells, 24 hours treatment
[2] = Hela SMARCA4-HiBiT cells, 24 hours treatment

DC50 (SMARCA2; [1]) | Dmax (SMARCA2; [1]) | DC50 (SMARCA4; [2]) | Dmax (SMARCA4; [2]) | SMARC A2 Hela HiBit Dmax (%) (SMARCA2; [1]) | DC50 (SMARCA2) | SMARC A4 Hela HiBit Dmax(%) (SMARCA4; [2]) | DC50 (SMARCA4) | SMILES | Dmax (SMARCA2; HeLa)
< 100 nM | > 90% | 501 to 1000 nM | 50 to 69% | – | – | – | – | Cc1ncsc1-c1ccc([C@H](CN2CCOCC2)NC(=O)[C@@H]2C[C@@H](O)CN2C(=O)[C@@H](NC(=O)[C@H]2CC[C@H](CN3CCC(c4ccc5c(c4)C4(CCCCC4)c4nc(=O)c6c(Br)cccc6n4-5)CC3)CC2)C(C)(C)C)cc1 [Compound A16, (2S,4R)-1-((S)-2-((1r,4S)-4-((4-(4′-bromo-5′-oxo-5′H-spiro[cyclohexane-1,7′-indolo[1,2-a]quinazolin]-9′-yl)piperidin-1-yl)methyl)cyclohexane-1-carboxamido)-3,3-dimethylbutanoyl)-4-hydroxy-N—((R)-1-(4-(4-methylthiazol-5-yl)phenyl)-2-morpholinoethyl)pyrrolidine-2-carboxamide] | –
< 100 nM | 70 to 90% | < 100 nM | > 90% | – | – | – | – | Cc1ncsc1-c1ccc([C@H](CCCCCN2CCC(c3ccc4c(c3)C3(CCCCC3)c3nc(=O)c5c(Br)cccc5n3-4)CC2)NC(=O)[C@@H]2C[C@@H](O)CN2C(=O)[C@@H](NC(=O)C2(N(C)C)CC2)C(C)(C)C)cc1 [Compound A17, (2S,4R)—N—((S)-6-(4-(4′-bromo-5′-oxo-5′H-spiro[cyclohexane-1,7′-indolo[1,2-a]quinazolin]-9′-yl)piperidin-1-yl)-1-(4-(4-methylthiazol-5-yl)phenyl)hexyl)-1-((S)-2-(1-(dimethylamino)cyclopropane-1-carboxamido)-3,3-dimethylbutanoyl)-4-hydroxypyrrolidine-2-carboxamide] | –
– | – | – | – | B (B (70-90% degradation)) | < 100 nM | B (B (70-90% degradation)) | < 100 nM | Cc1ncsc1-c1ccc([C@H](CCCCCN2CCC(c3ccc4c(c3)C3(CCCCC3)c3nc(=O)c5c(Br)cccc5n3-4)CC2)NC(=O)[C@@H]2C[C@@H](O)CN2C(=O)[C@@H](NC(=O)C2(CN(C)C)CC2)C(C)(C)C)cc1 [Compound A18, (2S,4R)—N—((S)-6-(4-(4′-bromo-5′-oxo-5′H-spiro[cyclohexane-1,7′-indolo[1,2-a]quinazolin]-9′-yl)piperidin-1-yl)-1-(4-(4-methylthiazol-5-yl)phenyl)hexyl)-1-((S)-2-(1-((dimethylamino)methyl)cyclopropane-1-carboxamido)-3,3-dimethylbutanoyl)-4-hydroxypyrrolidine-2-carboxamide] | –
– | – | – | – | A (A (>90% degradation)) | 100 to 500 nM | C (C (50-69% degradation)) | 100 to 500 nM | Cc1ncsc1-c1ccc([C@H](CN2CCOCC2)NC(=O)[C@@H]2C[C@@H](O)CN2C(=O)[C@@H](NC(=O)C2CC(CN3CCC(c4ccc5c(c4)C4(CCCCC4)c4nc(=O)c6c(Br)cccc6n4-5)CC3)C2)C(C)(C)C)cc1 (stereo partly drawn) [Compound A21, (2S,4R)-1-((S)-2-(3-((4-(4′-bromo-5′-oxo-5′H-spiro[cyclohexane-1,7′-indolo[1,2-a]quinazolin]-9′-yl)piperidin-1-yl)methyl)cyclobutane-1-carboxamido)-3,3-dimethylbutanoyl)-4-hydroxy-N—((R)-1-(4-(4-methylthiazol-5-yl)phenyl)-2-morpholinoethyl)pyrrolidine-2-carboxamide] | –
– | – | – | – | A (A (>90% degradation)) | < 100 nM | A (A (>90% degradation)) | < 100 nM | Cc1ncsc1-c1ccc([C@H](CN2CCOCC2)NC(=O)[C@@H]2C[C@@H](O)CN2C(=O)[C@@H](NC(=O)C23CCC(CN4CCC(c5ccc6c(c5)C5(CCCCC5)c5nc(=O)c7c(Br)cccc7n5-6)CC4)(CC2)C3)C(C)(C)C)cc1 [Compound A22, (2S,4R)-1-((S)-2-(4-((4-(4′-bromo-5′-oxo-5′H-spiro[cyclohexane-1,7′-indolo[1,2-a]quinazolin]-9′-yl)piperidin-1-yl)methyl)bicyclo[2.2.1]heptane-1-carboxamido)-3,3-dimethylbutanoyl)-4-hydroxy-N—((R)-1-(4-(4-methylthiazol-5-yl)phenyl)-2-morpholinoethyl)pyrrolidine-2-carboramide] | –
– | – | – | – | A (A (>90% degradation)) | < 100 nM | B (B (70-90% degradation)) | 100 to 500 nM | Cc1ncsc1-c1ccc([C@H](CN2CCOCC2)NC(=O)[C@@H]2C[C@@H](O)CN2C(=O)[C@@H](NC(=O)C23CCC(CN4CCC(c5ccc6c(c5)-n5c(nc(=O)c7c(Br)cccc75)C65CCCCC5)CC4)(CC2)C3)C(C)(C)C)cc1 [Compound A24, (2S,4R)-1-((S)-2-(4-((4-(4′-bromo-5′-oxo-5′H-spiro[cyclohexane-1,7′-indolo[1,2-a]quinazolin]-10′-yl)piperidin-1-yl)methyl)bicyclo[2.2.1]heptane-1-carboxamido)-3,3-dimethylbutanoyl)-4-hydroxy-N—((R)-1-(4-(4-methylthiazol-5-yl)phenyl)-2-morpholinoethyl)pyrrolidine-2-carboxamide] | –
> 1000 nM | < 50% | > 1000 nM | < 50% | – | – | – | – | CC(C)(C)[C@H](NC(=O)C1(F)CC1)C(=O)N1C[C@H](O)C[C@H]1C(=O)N[C@@H](CCCCCN1CCC(c2ccc3c(c2)C2(CCCCC2)c2nc(=O)c4c(Br)cccc4n2-3)CC1)c1ccc(Cl)cc1 [Compound A25, (2S,4R)—N—((S)-6-(4-(4′-bromo-5′-oxo-5′H-spiro[cyclohexane-1,7-indolo[1,2-a]quinazolin]-9′-yl)piperidin-1-yl)-1-(4-chlorophenyl)hexyl)-1-((S)-2-(1-fluorocyclopropane-1-carboxamido)-3,3-dimethylbutanoyl)-4-hydroxypyrrolidine-2-carboxamide] | –
– | – | – | – | D (D (<50% degradation)) | > 1000 nM | D (D (<50% degradation)) | > 1000 nM | CC(C)(C)[C@H](NC(=O)C1(F)CC1)C(=O)N1C[C@H](O)C[C@H]1C(=O)N[C@@H](CCCCCN1CCC(c2ccc3c(c2)-n2c(nc(=O)c4c(Br)cccc42)C32CCCCC2)CC1)c1ccc(Cl)cc1 [Compound A26, (2S,4R)—N—((S)-6-(4-(4′-bromo-5′-oxo-5′H-spiro[cyclohexane-1,7′-indolo[1,2-a]quinazolin]-10′-yl)piperidin-1-yl)-1-(4-chlorophenyl)hexyl)-1-((S)-2-(1-fluorocyclopropane-1-carboxamido)-3,3-dimethylbutanoyl)-4-hydroxypyrrolidine-2-carboxamide] | –

SMILES | DC50 (SMARCA2; [1]) | Dmax (SMARCA2; [1]) | DC50 (SMARCA4; [2]) | Dmax (SMARCA4; [2]) | SMARC A2 Hela HiBit Dmax (%) (SMARCA2; [1]) | DC50 (SMARCA2) | SMARC A4 Hela HiBit Dmax(%) (SMARCA4; [2]) | DC50 (SMARCA4) | Dmax (SMARCA2; HeLa)
Cc1ncsc1-c1ccc([C@H](C)NC(=O)[C@@H]2C[C@@H](O)CN2C(=O)[C@@H](NC(=O)C2CC(CN3CCC(c4ccc5c(c4)C4(CCCCC4)c4nc(=O)c6c(Br)cccc6n4-5)CC3)C2)C(C)(C)C)cc1 (stereo partly drawn) [Compound A20, (2S,4R)-1-((S)-2-(3-((4-(4′-bromo-5′-oxo-5′H-spiro[cyclohexane-1,7′-indolo[1,2-a]quinazolin]-9′-yl)piperidin-1-yl)methyl)cyclobutane-1-carboxamido)-3,3-dimethylbutanoyl)-4-hydroxy-N—((S)-1-(4-(4-methylthiazol-5-yl)phenyl)ethyl)pyrrolidine-2-carboxamide] | – | – | – | < 50% | – | < 100 nM | – | > 1000 nM | > 90%
Cc1ncsc1-c1ccc([C@H](C)NC(=O)[C@@H]2C[C@@H](O)CN2C(=O)[C@@H](NC(=O)C23CCC(CN4CCC(c5ccc6c(c5)-n5c(nc(=O)c7c(Br)cccc75)C65CCCCC5)CC4)(CC2)C3)C(C)(C)C)cc1 [Compound A23, (2S,4R)-1-((S)-2-(4-((4-(4′-bromo-5′-oxo-5′H-spiro[cyclohexane-1,7′-indolo[1,2-a]quinazolin]-10′-yl)piperidin-1-yl)methyl)bicyclo[2.2.1]heptane-1-carboxamido)-3,3-dimethylbutanoyl)-4-hydroxy-N—((S)-1-(4-(4-methylthiazol-5-yl)phenyl)ethyl)pyrrolidine-2-carboxamide] | – | – | – | 70 to 90% | – | < 100 nM | – | 100 to 500 nM | > 90%
